The text below walks through data of patent publication US20210261570A1, “ANTIBIOTIC RESISTANCE BREAKERS” (KING'S COLLEGE LONDON, priority 2017, published 2021).

One may read the AUC(0-inf) as the area under the concentration-time curve extrapolated to infinity. Low values mean less exposure, high ones more exposure. Usually half-life stands for how long it takes for the measured level to halve. Low values mean rapid decline, high ones slow decline. One may read the AUC as concentration integrated over time. Lower therefore signals low exposure. By MRT is commonly meant the average time that molecules of a dose stay in the body. Usually Tmax stands for the time from dosing to the highest level.

The structures appear in SMILES notation. Converted amounts (≈) assume the structure as drawn. “And” between values parts separate entries of the source, which are not always exact repeats. Identical values can stand only once. Like-named read-outs stand apart in the source and are kept apart here.

One data set deals with S. aureus SA 454. Put plainly: MIC, MDR strains with target mutations. It counts as cell-based.
For data set [1], the system named is multidrug resistant strains. Put plainly: Reserpine growth assay in several multidrug resistant strains. It counts as cell-based. The following applies: FIG. 27.
Experimental: Reserpine was added at a final concentration of 10 g/mL (made up at 40 μg/mL in TSB, 50 μL per well). The bacteria were added at an OD of 0.01 in TSB (100 μL/well). The plate was a normal clear plate as used for MICs. OD was read every 30 minutes for 9 hours (the literature states 7 hours, but this is strain-dependent). Blanks of TSB and water were added to ensure no infections were present.
The test system of data set [2] is S. aureus SA275 (gyrA, 84: S => L). Put plainly: MIC, MDR strains with target mutations. The following applies: Table 11 second entry. In kind it is cell-based.
The next data set has as its system S. aureus SA 046. Put plainly: MIC, MDR strains with target mutations. It counts as cell-based.
The next data set concerns S. aureus SA 282. Put plainly: MIC, MDR strains with target mutations. In kind it is cell-based.
Data set [3] in a line: Single dose pharmacokinetics study, oral and intravenous, blood and urine. It counts as in vivo. The following applies: mouse; for Cmax: read-out: Co/Cmax. As for the experimental part:
ICR breed Mice (CD-1® IGS mice) were used in these studies and was supplied by Charles River (Margate UK) and. The mice were allowed to acclimatise for at least 7 days before starting the study. Treatments was administered by oral route or intravenous route according to the table below. For the PK study, 12 mice for each compound for oral route and 12 mice per compound for the intravenous route was treated. Mice was sequentially bled from a caudal vein into a 20 μL capillary (by agreement containing an anticoagulant) at different time as indicated in table below and a terminal bleed by cardiac puncture at 8 h after administration. Samples collected by capillary was directly transferred into a 96 well and mixed with 20 μL of water, then frozen and store at −80° C. until bioanalysis. Mice for urine collection was housed singly in metabolic cages and urine collected at 0-1, 1-2, 2-4 h and 4-8 h post administration. Urine removed from the collection vessels in the metabolic cages and were frozen and store at −80° C. until bioanalysis. 12 mice were used for urine collection. […] A compound specific LC-MS/MS method was developed for each test compound and samples was quantified using matrix matched calibrators. Samples was prepared for bio-analysis via protein precipitation. Concentration vs time data and non-compartmental analysis was utilised to determine relevant PK parameters e.g. CL, Vss, t1/2, AUCinf AUCo-t, Cmax, tmax, % F, % dose in urine and CLR.

A further data set deals with S. aureus SA 238. As to the kind of experiment: MIC, MDR strains with target mutations. In kind it is cell-based.
Another data set deals with S. aureus SA 215. As to the kind of experiment: MIC, MDR strains with target mutations. It counts as cell-based. The note with it: in µg/mL.
For the next data set, the system named is S. aureus SA 105. In kind it is cell-based. The following applies: in µg/mL.
The test system of a further data set is EMRSA16. As to the kind of experiment: MIC, microdilution broth method. The following applies: EMRSA16. It counts as cell-based, Staphylococcus aureus. In general terms: In broth dilution the organism is exposed to a series of concentrations in liquid medium.
Data set [4] has as its system Staphylococcus aureus ATCC29213. Put plainly: Murine model of thigh infection (neutropenic ICR mice). The note with it: for decrease of thigh bacterial burden compared to vehicle group: 8 h and 14 h post infection. From the text: 40 Male mice used in these study were supplied by Charles River UK and were specific pathogen free. The strain of mouse used was Hsd:ICR (CD-1®), which is a well characterized outbred strain. Mice were 11-15 g on receipt at Evotec's facility and were allowed to acclimatize for minimum of 7 days prior to infection. Mice were approximately 28 g at the start of the study. Mice were housed in sterile individual ventilated cages exposing animals at all times to HEPA filtered sterile air. Mice had free access to food and water (sterile) and had sterile aspen chip bedding. The room temperature was 22° C.±1° C., with a relative humidity of 50-60% and maximum background noise of 56 dB. Mice were exposed to 12 hour light/dark cycles with dawn/dusk phases.
All mice were rendered neutropenic by immunosuppression with cyclophosphamide at 150 mg/kg 4 days before infection and then 100 mg/kg 1 day before infection administered by intraperitoneal injection. The immunosuppression regime leads to neutropenia starting 24 hours post administration of the first injection, which continues throughout the study. Mice were infected approximately 24 hours after the second dose of immunosuppressive agent.
Staphylococcus aureus ATCC29213 was used for the study.
Whilst still under anaesthesia mice were administered a single dose of buprenorphine (0.03 mg/kg) subcutaneously for pain relief.
Test articles and comparator were prepared in stock solutions at 10× concentration as described in Table 20. The stock solutions were prepared in aliquots (1 aliquot per time of dosing) and frozen at −20° C. The solutions were thawed and then diluted in water just before dosing to obtain the appropriate concentration of 5 mg/mL or 2 mg/mL for oral administration at 10 mL/kg of the dose of 50 mg/kg or 20 mg/kg respectively (Table 20). 10% DMSO in water was used as the vehicle
After sacrifice of animal, both posterior thighs were removed, weighed, then homogenised in 2 mL PBS using a Precellys bead beater and the homogenates individually quantitatively cultured on CLED agar to determine the bacterial burdens.
The data from the culture burdens were analysed using appropriate non-parametric statistical models (Kruskal-Wallis using Conover-Inman to make all pairwise comparisons between groups) with StatsDirect software v. 2.7.8., and compared to pre-treatment and vehicle controls.

Another data set has as its system EMRSA15. Put plainly: MIC, microdilution broth method. It counts as cell-based, Staphylococcus aureus. The note with it: EMRSA15; in µg/mL.
Another data set deals with S. aureus SA 275. As to the kind of experiment: MIC, MDR strains with target mutations. In kind it is cell-based. The following applies: S. aureus SA 275 (gyrA, 84: S => V).
A further data set concerns S. aureus SA 388. In kind it is cell-based.
The subject of another data set is S. aureus SH1000. Put plainly: MIC. In kind it is cell-based. The following applies: Staphylococcus aureus.
Another data set concerns E. faecalis EF 602. It counts as cell-based.
A further data set concerns S. aureus USA300. As to the kind of experiment: MIC. It counts as cell-based. The note with it: Staphylococcus aureus.
The next data set deals with E. faecium EF 205. It counts as cell-based.
For a further data set, the system named is S. aureus SA 318. In kind it is cell-based.
A further data set concerns VRE12201. Put plainly: MIC, microdilution broth method. It counts as cell-based, E. faecalis. The following applies: VRE12201; Gram-positive; in µg/mL.
The test system of a further data set is AYE. Put plainly: MIC, microdilution broth method. The note with it: Normal (without PMBN), in µg/mL. In kind it is cell-based, Acinetobacter baumannii.
For another data set, the system named is EC12923. Put plainly: MIC, microdilution broth method. The note with it: EC12923; Normal (without PMBN); in µg/mL. It counts as cell-based.
The next data set relates to KP13368. As to the kind of experiment: MIC, microdilution broth method. In kind it is cell-based. The note with it: Normal (without PMBN), in µg/mL.
[5] abbreviates: ICR (CD-1 IGS), in vivo, iv, 5 mg/kg.
Setting [6] is: ICR (CD-1 IGS), in vivo, po, 20 mg/kg.
[7] abbreviates: ICR (CD-1 IGS), in vivo, iv, 5.0 mg/kg, blood, Composite Mean.

As for `C[C@H]1COc2c(N3CC[C@@H](Nc4ncccn4)C3)c(F)cc3c(=O)c(C(=O)O)cn1c23` [KSN-L22, (S)-9-fluoro-3-methyl-7-oxo-10-((R)-3-(pyrimidin-2-ylamino)pyrrolidin-1-yl)-2,3-dihydro-7H-[1,4]oxazino[2,3,4-ij]quinoline-6-carboxylic Acid], the MIC against S. aureus SA 454 came out at 1 µg/mL (≈ 2.35 µM); in data set [2] it was 1 µg/mL (≈ 2.35 µM); against S. aureus SA 046 it was 1 µg/mL (≈ 2.35 µM); against S. aureus SA 282, 1 µg/mL (≈ 2.35 µM); against S. aureus SA 238 it was 1 µg/mL (≈ 2.35 µM); in the data set with S. aureus SA 215, 1. Further, the MIC in the data set on S. aureus SA 105 was 1; against EMRSA16, 1 µg/mL (≈ 2.35 µM); against EMRSA15, 0.5-1; against S. aureus SA 275, 1 µg/mL (≈ 2.35 µM). Further, the “efflux from the bacteria (reserpine growth assay)” value in data set [1] is reported as “reduced efflux”. Besides, the clearance in data set [3] (ICR (CD-1 IGS), in vivo, iv, 5.0 mg/kg, blood, Composite Mean, read-out: Blood CL) was determined as 12.5 mL/min/kg. Moreover, the AUC(0-inf) in [3] (setting [5]) is 6690 ng·h/mL; in [3] (setting [6]), 13200 ng·h/mL. Also, the “Bioavailability (%) Using AUCinf” value in [3] (setting [6]) worked out at 49.3%. The “Bioavailability (%) Using AUCo. t” value in [3] (setting [6]) was 32.0%. This compound also displayed a CL_F in data set [3] (setting [6]) of 26.4 mL/min/kg. In [3] (PO, 20.0 mg/kg, blood, Mean), this compound came in with a T1/2 of 5.1 h. In data set [3] (iv, 5.0 mg/kg, blood, Composite Mean), this compound had a Vdss of 1.4 L/kg. Moreover, in [4] (20 and 50 mg/kg, 18 h post infection), the “thigh bacterial burden, result in words” value is given as “statistically significant reduction of bacterial load”.

With `C[C@H]1COc2c(N3CCN(C)CC3)c(F)cc3c(=O)c(C(=O)O)cn1c23` [Levofloxacin, levofloxacin], the MIC is 16 µg/mL (≈ 44.3 µM) in the data set with S. aureus SA 388; 8 µg/mL (≈ 22.1 µM) in the data set on S. aureus SA 454; 2 to 4 µg/mL (≈ 5.53 to 11.1 µM) with S. aureus SH1000; greater than 32 µg/mL with E. faecalis EF 602; 16 µg/mL (≈ 44.3 µM) in the data set with S. aureus SA 046; 32 µg/mL (≈ 88.6 µM) against S. aureus SA 238. Further, the MIC against S. aureus USA300 was 8 µg/mL (≈ 22.1 µM); against E. faecium EF 205 it was greater than 32 µg/mL; with S. aureus SA 215, 32 and 16; against S. aureus SA 318 it was 16 µg/mL (≈ 44.3 µM); with S. aureus SA 105, 8-16; in the data set with VRE12201, 0.5-1. The MIC against EMRSA16 (Gram-positive) was determined as 16 µg/mL (≈ 44.3 µM). For the same compound, the Cmax worked out at 2950 ng/mL in data set [3] (ICR (CD-1 IGS), in vivo, PO, 20.0 mg/kg, blood, Mean) and 3890 ng/mL in [3] (setting [7]). The half-life in data set [3] (setting [7]) was 30 min. In addition, the AUC was 3090 ng·h/mL and 8.55 µM·h in data set [3] (setting [5]); 4260 ng·h/mL and 11.8 µM·h in [3] (setting [6]). Also, the area under the curve AUC(0-inf) in data set [3] (setting [5]) is 3310 ng·h/mL and 9.19 µM·h; in data set [3] (setting [6]) it was 5390 ng·h/mL and 14.9 µM·h. The MRT in data set [3] (setting [5]) was 3 h. Besides, the Vd in data set [3] (setting [5]) worked out at 4.5 L/kg. In data set [3] (setting [5]), this compound returned a clearance of 25.2 mL/min/kg. The “Bioavailability (%) Using AUCo. t” value in [3] (setting [6]) was determined as 34.5%. Moreover, the time of peak concentration (Tmax) in [3] (setting [6]) came out at 30 min. The T1/2 in data set [3] (PO, 20.0 mg/kg, blood, Mean) is 5.7 h. The “decrease of thigh bacterial burden compared to vehicle group” value in [4] (20 mg/kg/dose oral at 2 h, 18 h post infection) is given as roughly 5 log10 CFU/g; in [4] (50 mg/kg/dose oral at 2 h, 18 h post infection), roughly 5 log10 CFU/g. Also, the “body weights following infection” value in data set [4] (in vivo) was “unchanged”. The “Statistic analysis of thigh burden, P versus ML-83-009 20 mg/kg” value in [4] (substance at 20 mg/kg) is on record as “P = 0.0003”; in data set [4] (substance at 50 mg/kg), “P < 0.0001”. Further, the “Statistic analysis of thigh burden, P versus ML-83-009 50 mg/kg” value in [4] (substance at 20 mg/kg) is recorded as “P = 0.0058”; in [4] (substance at 50 mg/kg), “P < 0.0001”. In addition, the “Statistic analysis of thigh burden, P versus Vehicle” value in [4] (substance at 20 mg/kg) and in data set [4] (substance at 50 mg/kg) was “P < 0.0001” each time. Also, the “Statistic analysis of thigh burden, P versus Pre treatment” value in data set [4] (substance at 50 mg/kg) is reported as “P = 0.0084”.

Turning to `C[C@H]1COc2c(N3CCC(n4cccn4)CC3)c(F)cc3c(=O)c(C(=O)O)cn1c23` [ML-83-041, (S)-10-(4-(1H-pyrazol-1-yl)piperidin-1-yl)-9-fluoro-3-methyl-7-oxo-2,3-dihydro-7H-[1,4]oxazino[2,3,4-ij]quinoline-6-carboxylic Acid], the figures for the MIC with AYE, against EC12923 and in the data set with KP13368 were 64-128, 1-2 and 16-32, respectively.
